Numbering of substitutions follows the chain as printed. Read-outs that look alike come from different tables or passages of the source.
Key:
[1] = target: T1, maize endosperm AGPase, large subunit variant D161G (numbering of SEQ ID NO: 20) (Zea mays, UniProt P55241+Q84PF5, D161G); assay: Apparent kinetic constants with 3-PGA, 37° C., D161G; type: biochemical
T1 sequence (P55241 46-516 D161G): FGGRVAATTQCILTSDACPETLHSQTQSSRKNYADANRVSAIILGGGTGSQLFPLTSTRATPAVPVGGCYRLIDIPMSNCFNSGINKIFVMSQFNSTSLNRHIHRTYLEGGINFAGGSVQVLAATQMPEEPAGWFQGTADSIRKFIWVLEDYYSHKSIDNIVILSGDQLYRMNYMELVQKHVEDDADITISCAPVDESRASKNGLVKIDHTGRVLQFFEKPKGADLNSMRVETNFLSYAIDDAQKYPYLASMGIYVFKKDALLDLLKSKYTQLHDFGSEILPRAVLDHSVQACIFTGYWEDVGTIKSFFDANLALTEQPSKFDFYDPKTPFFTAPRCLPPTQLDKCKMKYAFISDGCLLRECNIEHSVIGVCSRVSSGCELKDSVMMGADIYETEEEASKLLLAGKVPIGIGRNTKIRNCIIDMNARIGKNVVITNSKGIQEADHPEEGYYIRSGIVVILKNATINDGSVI
T1 sequence (Q84PF5 1-474): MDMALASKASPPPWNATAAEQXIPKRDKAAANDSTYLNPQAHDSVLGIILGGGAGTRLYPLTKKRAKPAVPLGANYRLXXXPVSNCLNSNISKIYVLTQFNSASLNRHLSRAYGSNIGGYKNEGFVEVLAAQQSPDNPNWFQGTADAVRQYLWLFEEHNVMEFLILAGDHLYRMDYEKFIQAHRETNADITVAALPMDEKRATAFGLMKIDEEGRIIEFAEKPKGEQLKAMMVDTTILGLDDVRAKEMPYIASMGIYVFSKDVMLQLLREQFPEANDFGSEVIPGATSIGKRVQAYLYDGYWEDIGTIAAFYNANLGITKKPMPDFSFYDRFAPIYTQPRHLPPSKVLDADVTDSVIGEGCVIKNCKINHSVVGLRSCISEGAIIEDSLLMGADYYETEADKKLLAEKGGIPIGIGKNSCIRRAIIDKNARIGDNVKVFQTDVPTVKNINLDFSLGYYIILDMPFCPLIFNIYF
From the text: (§1) The small and large subunit plasmids of maize endosperm AGPase (pMONcBt2 and pMONcSh2, respectively) (Giroux et al., 1996) were expressed in E. coli AC70R1-504 cells (Iglesias et al., 1993) as previously described (Boehlein et al., 2008).
(§2) An endpoint assay was used to determine the rate of the AGPase reaction by coupling the formation of PPi to a decrease in NADH concentration (Boehlein et al., 2008). […] The Michaelis constants (Km) were obtained by varying one substrate in the presence of saturating concentrations of the second substrate. The activation constants were obtained by varying the activator at fixed levels of both substrates. All reactions were performed at 37° C. and mixes were prewarmed before starting the reaction with enzyme. […] The absorbance at 340 nm was monitored after 30 min and the amount of PPi produced was determined from a standard curve using PPi in complete reaction mixtures lacking AGPase. Blank samples contained complete reaction mixtures without enzyme and the change in absorbance between the blank and the reaction was used to calculate the amount of PPi produced. […]
(§3) The apparent Michaelis constant and maximum velocity of each reaction was calculated from a V vs. S plots using nonlinear regression analysis and the following equation, v=VmaxS/(Km+S), where v is the measured velocity, Vmax is the maximum velocity, S is the substrate concentration. […]

[2] = target: T2, maize endosperm AGPase, large subunit variant RGRR (Q96R, D161G, A443R, S444R; numbering of SEQ ID NO: 20) (Zea mays, UniProt P55241+Q84PF5, A443R/D161G/Q96R/S444R); assay: Apparent kinetic constants with 3-PGA, 37° C., RGRR; type: biochemical; conditions: read-out: ATP Km
T2 sequence (P55241 46-516 A443R/D161G/Q96R/S444R): T1 sequence (P55241 46-516 D161G) with Q51R, A398R, S399R
T2 sequence (Q84PF5 1-474): T1 sequence (Q84PF5 1-474)
From the text: as §1, §2, §3

SMILES: Nc1ncnc2c1ncn2[C@@H]1O[C@H](COP(=O)(O)OP(=O)(O)OP(=O)(O)O)[C@@H](O)[C@H]1O [ATP]
- Km ([1]; read-out: ATP Km, with 3-PGA, 37° C.): 44 µM
- Km ([1]; read-out: Km for ATP, in the presence of 3-PGA): 40 µM
- Km [2]: 38 µM

Reference: patent publication US9650616B2, “Methods for increasing grain yield” (University of Florida Research Foundation, Inc., priority 2014, dated 2017)
